# Reference: publication PMC12114839 (2025)
# Test system: c-MYC G4 DNA (Pu27) (DNA, G4) TGAGGGTGGGTAGGGTGGGTAA
# Test: UV-Vis absorbance titration
# Details: 100 mM K+ (KCl); 10 mM Tris-HCl pH 7.4, 1 mM EDTA, 25 °C; 5 µM DNA, 0-20 µM EGCG; no Kd determined
smiles,measurement,value
O=C(O[C@@H]1Cc2c(O)cc(O)cc2O[C@@H]1c1cc(O)c(O)c(O)c1)c1cc(O)c(O)c(O)c1,binding,yes
